Laboratory results as given in the NIST ThermoML archive (doi:10.1016/j.jct.2012.06.018).

Conditions: for surface tension liquid-gas: Ring tensiometer; for viscosity / mass density: 101.33 kPa, Liquid; for viscosity: Capillary tube (Ostwald / Ubbelohde) method; for mass density: Pycnometric method

CCCC[n+]1cccc(C)c1.O=S(=O)([O-])C(F)(F)F [1-butyl-3-methylpyridinium trifluoromethanesulfonate]
Conditions | mass density [kg/m3] | surface tension liquid-gas [mN/m] | viscosity [mPa·s]
293.15 K | 1306 | 38.6 | 142.15
298.15 K | 1297 | 38.2 | 126.57
303.15 K | 1291 | 37.5 | 101.27
308.15 K | 1285 | 37.1 | 78.04
313.15 K | 1275 | 36.9 | 60.98
318.15 K | 1270 | 36.6 | 48.9
323.15 K | 1251 | 36.2 | 37.94

CCCC[n+]1ccccc1.O=S(=O)([N-]S(=O)(=O)C(F)(F)F)C(F)(F)F [1-butylpyridinium bis[(trifluoromethyl)sulfonyl]imide]
Conditions | mass density [kg/m3] | surface tension liquid-gas [mN/m] | viscosity [mPa·s]
293.15 K | 1462 | 35 | 75.61
298.15 K | 1456 | 34.8 | 60.55
303.15 K | 1445 | 34.5 | 48.11
308.15 K | 1441 | 34.4 | 38.08
313.15 K | 1439 | 34.3 | 32.37
318.15 K | 1437 | 34.2 | 27.62
323.15 K | 1433 | 34.1 | 22.75

CC[n+]1ccccc1.O=S(=O)([N-]S(=O)(=O)C(F)(F)F)C(F)(F)F [1-ethylpyridinium bis[(trifluoromethyl)sulfonyl]imide]
Conditions | mass density [kg/m3] | surface tension liquid-gas [mN/m] | viscosity [mPa·s]
293.15 K | 1534 | 35.6 | 47.43
298.15 K | 1532 | 35.5 | 39.76
303.15 K | 1530 | 35.4 | 33.31
308.15 K | 1528 | 35.3 | 27.8
313.15 K | 1520 | 35.2 | 23.39
318.15 K | 1519 | 35.2 | 20.2
323.15 K | 1515 | 35.1 | 17.61

CCCCCC[n+]1ccccc1.O=S(=O)([N-]S(=O)(=O)C(F)(F)F)C(F)(F)F [1-hexylpyridinium bis(trifluromethylsulfonyl)imide]
Conditions | mass density [kg/m3] | surface tension liquid-gas [mN/m] | viscosity [mPa·s]
293.15 K | 1386 | 34.2 | 275.12
298.15 K | 1382 | 33.9 | 245.33
303.15 K | 1379 | 33.5 | 201.82
308.15 K | 1373 | 33.3 | 153.24
313.15 K | 1368 | 33 | 131.32
318.15 K | 1368 | 32.8 | 105.99
323.15 K | 1362 | 32.6 | 83.66
